What all share (format): functional
Experiment [1] relates to Clostridioides difficile. Put plainly: Antimicrobial activity against Clostridium difficile 6425 by broth dilution method.
Experiment [2] relates to Clostridioides difficile. Put plainly: Antimicrobial activity against Clostridium difficile CD07-259 by broth dilution method.
The subject of experiment [3] is Clostridioides difficile. Put plainly: Antimicrobial activity against Clostridium difficile CD196 by broth dilution method.
Experiment [4] has as its system Clostridioides difficile. Put plainly: Antimicrobial activity against Clostridium difficile ATCC 43603 by broth dilution method.
In experiment [5] the test system is Clostridioides difficile. Put plainly: Antimicrobial activity against Clostridium difficile 6269 by broth dilution method.
Experiment [6] relates to Clostridioides difficile. Put plainly: Induction of Cwp84 protease expression in Clostridium difficile ATCC 43603-M1 at 0.5 times MIC by immunoblot analysis.
Experiment [7] has as its system Clostridioides difficile. Put plainly: Upregulation of fbp68 gene expression in Clostridium difficile ATCC 43603 at 0.5 times MIC by real-time PCR analysis relative to control.
In experiment [8] the test system is Clostridioides difficile. Put plainly: Upregulation of slpA gene expression in Clostridium difficile ATCC 43603-M1 at 0.5 times MIC by real-time PCR analysis relative to control.
Experiment [9] is described as follows: Antimicrobial activity against Clostridium difficile CD196 M1 by broth dilution method. The following applies: Clostridioides difficile.
The subject of experiment [10] is Clostridioides difficile. Put plainly: Upregulation of slpA gene expression in Clostridium difficile CD07-259 at 0.5 times MIC by real-time PCR analysis relative to control.
The test system of experiment [11] is Clostridioides difficile. Put plainly: Upregulation of slpA gene expression in Clostridium difficile 6425 at 0.5 times MIC by real-time PCR analysis relative to control.
Experiment [12] deals with Clostridioides difficile. Put plainly: Upregulation of fbp68 gene expression in Clostridium difficile ATCC 43603-M1 at 0.5 times MIC by real-time PCR analysis relative to control.
For experiment [13], the system named is Clostridioides difficile. Put plainly: Upregulation of cwp84 gene expression in Clostridium difficile ATCC 43603 at 0.5 times MIC by real-time PCR analysis relative to control.
Experiment [14] deals with Clostridioides difficile. Put plainly: Upregulation of slpA gene expression in Clostridium difficile ATCC 43603 at 0.5 times MIC by real-time PCR analysis relative to control.
Experiment [15] has as its system Clostridioides difficile. Put plainly: Antimicrobial activity against Clostridium difficile ATCC 43603-M1 by broth dilution method.
The test system of experiment [16] is Clostridioides difficile. Put plainly: Upregulation of cwp84 gene expression in Clostridium difficile ATCC 43603-M1 at 0.5 times MIC by real-time PCR analysis relative to control.
Experiment [17] relates to Clostridioides difficile. Put plainly: Induction of Cwp84 protease expression in Clostridium difficile 6425 at 0.5 times MIC by immunoblot analysis.

SMILES strings stand for the structures. ≈ marks a conversion by molar mass, not a printed value.

Consider `CC1(C)S[C@@H]2[C@H](NC(=O)[C@H](N)c3ccccc3)C(=O)N2[C@H]1C(=O)O` [AMPICILLIN], for which the MIC is 4 µg/mL (≈ 11.4 µM) in [1]; 4 µg/mL (≈ 11.4 µM) in experiment [2]; 8 µg/mL (≈ 22.9 µM) in [3]; 2 µg/mL (≈ 5.72 µM) in experiment [4]; 2 µg/mL (≈ 5.72 µM) in experiment [5].

Regarding `CCC[C@@H]1C[C@@H](C(=O)N[C@@H]([C@H]2O[C@H](SC)[C@H](O)[C@@H](O)[C@H]2O)[C@H](C)Cl)N(C)C1` [CLINDAMYCIN], the MIC is 128 µg/mL (≈ 301 µM) in [1]; 4 µg/mL (≈ 9.41 µM) in [2]; 128 µg/mL (≈ 301 µM) in experiment [3]; 4 µg/mL (≈ 9.41 µM) in experiment [4]; 1 µg/mL (≈ 2.35 µM) in [5].

Consider `CC1COc2c(N3CCN(C)CC3)c(F)cc3c(=O)c(C(=O)O)cn1c23` (configuration not stated) [OFLOXACIN], for which the MIC in experiment [1] came to 256 µg/mL (≈ 708 µM); in experiment [2], 256 µg/mL (≈ 708 µM); in experiment [3], 8 µg/mL (≈ 22.1 µM); in experiment [9], 128 µg/mL (≈ 354 µM); in experiment [4], 8 µg/mL (≈ 22.1 µM); in [15], 256 µg/mL (≈ 708 µM). In experiment [5], the MIC came out at 32 µg/mL (≈ 88.6 µM). Moreover, the Activity worked out at 25% in experiment [6] and 130% in experiment [17]. The “fold change (FC)” value in experiment [7] was 4.8; in experiment [8], 32.8; in experiment [10], 22; in experiment [11], 4; in experiment [12], 2.1; in experiment [13], 3.2. Also, the “fold change (FC)” value in experiment [14] amounted to 3.9; in [16] it was 67.4.

The values above are taken from ChEMBL document CHEMBL1649303, “Effects of subinhibitory concentrations of antibiotics on colonization factor expression by moxifloxacin-susceptible and moxifloxacin-resistant Clostridium difficile strains” (2009).
